Structures are written as SMILES.

Chain of Hypoxia-inducible factor 1-alpha (Q16665 whole entry): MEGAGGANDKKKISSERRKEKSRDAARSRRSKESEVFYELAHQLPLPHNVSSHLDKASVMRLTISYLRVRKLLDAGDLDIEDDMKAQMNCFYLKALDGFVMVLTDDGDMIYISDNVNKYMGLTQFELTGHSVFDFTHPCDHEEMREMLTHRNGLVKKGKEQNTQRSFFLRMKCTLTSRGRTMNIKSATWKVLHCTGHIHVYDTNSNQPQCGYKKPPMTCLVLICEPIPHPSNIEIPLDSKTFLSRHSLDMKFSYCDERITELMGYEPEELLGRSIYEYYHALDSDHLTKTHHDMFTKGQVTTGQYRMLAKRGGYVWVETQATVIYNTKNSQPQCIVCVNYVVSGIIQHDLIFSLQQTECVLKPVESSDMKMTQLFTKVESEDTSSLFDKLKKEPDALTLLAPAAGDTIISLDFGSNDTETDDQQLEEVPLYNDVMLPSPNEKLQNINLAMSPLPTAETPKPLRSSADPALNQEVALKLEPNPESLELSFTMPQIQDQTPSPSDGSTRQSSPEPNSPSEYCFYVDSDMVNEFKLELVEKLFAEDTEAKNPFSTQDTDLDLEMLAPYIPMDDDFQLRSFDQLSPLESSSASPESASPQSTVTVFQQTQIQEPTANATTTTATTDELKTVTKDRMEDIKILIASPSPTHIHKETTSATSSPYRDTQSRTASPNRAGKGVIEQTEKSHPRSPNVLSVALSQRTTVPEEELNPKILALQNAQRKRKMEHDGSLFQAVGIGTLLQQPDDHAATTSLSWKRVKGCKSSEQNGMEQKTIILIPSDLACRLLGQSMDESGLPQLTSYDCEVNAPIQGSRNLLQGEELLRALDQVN

This test has as its target Hypoxia-inducible factor 1-alpha (Homo sapiens, UniProt Q16665). As to the kind of experiment: Inhibition of HIF1alpha transcriptional activity in human HeLa cells transfected with HRE-firefly luciferase and cytomegalovirus-promoter expressing Renilla luciferase incubated for 12 hrs under 1% O2 condition by dual luciferase reporter gene assay.
As for `O=C1c2ccccc2-c2cn[nH]c21`, the concentration for half-maximal inhibition (IC50) was above 30 µM.
Under `O=C1c2ccccc2-c2cnn(-c3ccc(O)cc3)c21` stands 0.39 µM.
Under `Cn1ncc2c1C(=O)c1ccccc1-2` stands 8.8 µM; under `Cc1nn(-c2ccccc2)c2c1-c1ccccc1C2=O`, 4.8 µM.
Under `O=C1c2ccccc2-c2cnn(-c3ccc(C(F)(F)F)cc3)c21` stands 23 µM.
Compound `COc1ccc(-n2ncc3c2C(=O)c2ccccc2-3)cc1` returned an IC50 of 0.61 µM.
In turn, `Cc1ccc(-n2ncc3c2C(=O)c2ccccc2-3)cc1` displayed a half-maximal inhibitory concentration (IC50) of 0.79 µM.
As to `O=C1c2ncccc2-c2cnn(-c3ccccc3)c21`, 10 µM corresponded to half-maximal inhibition (IC50).
For `O=C1c2ccccc2-c2cnn(-c3ccccc3)c21` the value was 1.4 µM.
